Data as given in paper PMC11714206, “Massively Parallel Screening of Toll/Interleukin‐1 Receptor (TIR)‐Derived Peptides Reveals Multiple Toll‐Like Receptors (TLRs)‐Targeting Immunomodulatory Peptides” (Advanced Science, 2024).
Values belong to the sequence of their own block, whether it stands above or below them.

Molecular target: T1, MAL^TIR (Homo sapiens, UniProt P58753)
T1 construct: MAL (residues 79–221); 6xHis; made in house; host or cells: E. coli BL21 (DE3)
Experiment: T‐Surf phage library (P8 and P3) selection against MAL^TIR, four rounds, NGS read counts
Assay type: binding
Details: for P8_MAL Rank (after) / P8_MAL Rank (before): P8 library; for P3_MAL Rank (after) / P3_MAL Rank (before): P3 library; for Population: 4th round of selection against MAL TIR, share of NGS reads
Procedure: T‐Surf libraries were screened against the immobilized TIR domains of two major human TLR adaptor proteins, MAL^TIR and MyD88^TIR, allowing cross‐species selection of TIR‐binding motifs with 190 946 TIR‐derived peptides in a single binding assay (Scheme 1). Enriched phage pools from the fourth round of selection were analyzed using NGS after barcoding the peptide‐coding regions of the phage pools.
Phage display screening was performed by coating two wells of a 96‐well plate (Maxisorp, Thermo Fisher Scientific) with 100 µL of 5 µg mL^−1 TIR domains overnight; then, the coated wells were blocked with 200 µL of blocking buffer (0.2% BSA in PBS) and set aside for 1 h at 4 °C with gentle shaking. Next, 100 µL of the phage library was added to the wells and incubated for 1 h at room temperature (RT; 20 – 22 °C) with gentle shaking. The plate was washed four times with PBS containing 0.5% Tween‐20; the bound phages were eluted by adding 100 µL of 100 mM HCl to each well. The elute was neutralized with 10 µL of 1.0 M Tris‐HCl (pH 11.0). E. coli TG1 cells were grown to the log phase (A600 = ≈0.6), and 1 mL of the culture was incubated with 100 µL of the eluted phages for 30 min at 37 °C, with shaking at 200 rpm. Next, 1 µL of M13KO7 helper phages was added, followed by incubation for 45 min at 37 °C, with shaking. Subsequently, the cells were transferred to 25 mL of 2× yeast extract tryptone/carbenicillin/kanamycin medium and incubated overnight at 37 °C with shaking at 200 rpm. The amplified phages were precipitated with 20% PEG‐8000/2.5 M NaCl to be used for the next round of selection.
The naïve T‐Surf libraries in P8 and P3 and the enriched phage pools after four rounds were barcoded for NGS as previously described.^[ [59] ^] Briefly, 5 µL of the phage pool was used as a template for 20 cycles of a 50 µL PCR reaction using […] each of forward and reverse barcoded primers and PrimeSTAR Max DNA Polymerase. The PCR products were purified using Expin Gel SV (GeneAll). The NGS samples were quantified using qPCR, following the qPCR Quantification Protocol Guide (KAPA Library Quantification kits for Illumina Sequencing Platform), and qualified using the TapeStation High Sensitivity D1000 ScreenTape (Agilent Technologies). The indexed libraries were further sequenced by Macrogen (Seoul, Republic of Korea) using the NovaSeq platform (Illumina) with 100 bp paired‐end reads. The reads were demultiplexed by barcodes and filtered for an average Phred quality score of at least 30, followed by trimming the flanking consensus sequences using Cutadapt (version 2.3). Peptide sequence populations were analyzed according to the read counts.

[1] = selection against MAL TIR, rank by count after grouping
[2] = selection against MAL TIR, rank by count before grouping
[3] = selection against MAL, rank after grouping
[4] = selection against MAL, rank before grouping
[5] = P8_MAL: rank by count after grouping
[6] = P8_MAL: rank by count before grouping
[7] = 4R selection against MAL, rank after grouping
[8] = 4R selection against MAL, rank before grouping
[9] = P3_MAL pool: P3 T-Surf phage library
[10] = P3_MAL: rank by count after grouping
[11] = P3_MAL: rank by count before grouping
[12] = P8_MAL pool: P8 T-Surf phage library

T1 sequence (P58753 79-221): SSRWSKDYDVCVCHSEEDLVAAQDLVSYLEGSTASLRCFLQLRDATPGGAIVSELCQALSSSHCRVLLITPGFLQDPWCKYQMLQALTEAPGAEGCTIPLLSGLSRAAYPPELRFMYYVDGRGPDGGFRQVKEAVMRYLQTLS

Sequence: AFFWEQLRTVLGKPSI
- P8_MAL Rank (after) [1]: 194
- P8_MAL Rank (before) [2]: 1684

Sequence: DFLSHLIEAFSRMHIN
- P8_MAL Rank (after) [3]: 504
- P8_MAL Rank (before) [4]: 1972

Sequence: KLFWAICIMRWCRRAF
- Rank (after) [5]: 175
- Rank (before) [6]: 1070

Sequence: NQWRNALTAAANLSVC
- P3_MAL Rank (after) [7]: 610
- P3_MAL Rank (before) [8]: 3370

Sequence: SFFWNKLRYHLQAKDH
- P3_MAL Rank (after) [3]: 572
- P3_MAL Rank (before) [4]: 3010

Sequence: WFYERLVCLILRDIKV
- Rank (after) [5]: 465
- Rank (before) [6]: 1171

Sequence: HQARWNRPWAKLKPPT
- P3_MAL Rank (after) [7]: 626
- P3_MAL Rank (before) [8]: 2895

Sequence: AFFWAQPKSVLGNPTV
- Rank (after) [5]: 103
- Rank (before) [6]: 1645

Sequence: ELDFSHFWLFDGEAGGEP
- P8_MAL Rank (after) [3]: 569
- P8_MAL Rank (before) [4]: 2048

Sequence: AFLCAHLKSVLGNPTI
- Rank (after) [5]: 461
- Rank (before) [6]: 1804

Sequence: NGHESELIKEIVVTIV
- P3_MAL Rank (after) [7]: 647
- P3_MAL Rank (before) [8]: 3257

Sequence: TFLGHLYNALLRSDGR
- P8_MAL Rank (after) [7]: 654
- P8_MAL Rank (before) [8]: 2590

Sequence: YAFTGHPHRYLVQRGV
- Population [9]: 0.00564%

Sequence: PNLGTKTLNYLTRTKT
- P3_MAL Rank (after) (selection against MAL, rank by count after grouping): 730
- P3_MAL Rank (before) (selection against MAL, rank by count before grouping): 2666

Sequence: FMSHLYRYLVQRGV
- P3_MAL Rank (after) [3]: 546
- P3_MAL Rank (before) [4]: 1200

Sequence: RGLLSHLRHHLLGKDH
- Rank (after) [10]: 450
- Rank (before) [11]: 2429

Sequence: YFLHFLLFSLPENECI
- P8_MAL Rank (after) [3]: 544
- P8_MAL Rank (before) [4]: 1474

Sequence: SSFLSHLFDALQRKQI
- P3_MAL Rank (after) [1]: 218
- P3_MAL Rank (before) [2]: 1020

Sequence: AFLCPQLKSVLGNPTI
- Rank (after) [5]: 133
- Rank (before) [6]: 1753

Sequence: TFLRHLYNALVQAGLH
- P8_MAL Rank (after) [1]: 245
- P8_MAL Rank (before) [2]: 2627

Sequence: SFYEPQVKMVLRNTTM
- P8_MAL Rank (after) [1]: 282
- P8_MAL Rank (before) [2]: 1446

Sequence: AFLYTFDQSDPSDQF
- P8_MAL Rank (after) [3]: 509
- P8_MAL Rank (before) [4]: 1822

Sequence: KMQKWKDALYEAAKLG
- P3_MAL Rank (after) [1]: 250
- P3_MAL Rank (before) [2]: 3687

Sequence: AFLYTFLINLTHPNNF
- Population [12]: 0.00463%

Sequence: MSQRYQGLKNRGIFTF
- P3_MAL Rank (after) [7]: 663
- P3_MAL Rank (before) [8]: 2959

Next, values leading:

- Rank (after) [5]: 98
- Rank (before) [6]: 1259
Sequence: WFYERQVSLILRDTNV

- P8_MAL Rank (after) [7]: 587
- P8_MAL Rank (before) [8]: 1588
Sequence: AFFCTQLKSVLGNPTI

- Population [9]: 0.00338%
Sequence: FAFTGHLHRYLVQRGV

- Rank (after) [10]: 480
- Rank (before) [11]: 1431
Sequence: YAFTGHLHQFHSWV

- P3_MAL Rank (after) [1]: 208
- P3_MAL Rank (before) [2]: 2670
Sequence: PNLRPQVLNYLIRTKT

- Population [12]: 0.00402%
Sequence: AFLYTFLISLTHPTNF

- Rank (after) [10]: 409
- Rank (before) [11]: 3235
Sequence: TRFCDRRCLTVAGSSA

- P3_MAL Rank (after) [7]: 636
- P3_MAL Rank (before) [8]: 2547
Sequence: RLRKWKEALHQFHSWG

- P8_MAL Rank (after) [7]: 674
- P8_MAL Rank (before) [8]: 2533
Sequence: TFLYTFLINLTHPTNY

- P8_MAL Rank (after) [7]: 641
- P8_MAL Rank (before) [8]: 1790
Sequence: AFYGPLLSLILRDTKM

- P8_MAL Rank (after) [3]: 534
- P8_MAL Rank (before) [4]: 1765
Sequence: AFLWTQLKSLLRNTTM

- Rank (after) [10]: 414
- Rank (before) [11]: 2563
Sequence: RHFAGLLYDRLTKTGV

- P3_MAL Rank (after) [1]: 227
- P3_MAL Rank (before) [2]: 3704
Sequence: KIILDTAARIWGWRQA

- P3_MAL Rank (after) [3]: 560
- P3_MAL Rank (before) [4]: 1396
Sequence: YAFTGHLHRYLVQRGVHGGD

- P8_MAL Rank (after) [7]: 653
- P8_MAL Rank (before) [8]: 2349
Sequence: QLIQQLIELHLDQLHL

- P8_MAL Rank (after) [3]: 533
- P8_MAL Rank (before) [4]: 1578
Sequence: AFFLAQLKSVLGKPTM

- P8_MAL Rank (after) [7]: 675
- P8_MAL Rank (before) [8]: 1585
Sequence: AFFCAQLKSVMGNPTI

- Rank (after) [10]: 434
- Rank (before) [11]: 2032
Sequence: ERLFSEPLNVNKDLLG

- Population [9]: 0.00902%
- Rank (after) [10]: 103
- Rank (before) [11]: 111
Sequence: RGFREGLWRLLELSKK
